Where “and” joins values, the source holds several entries; their conditions need not be identical. Equal entries are not always repeated.
Species: Rattus norvegicus
Assay: DrugMatrix - Regimen: Daily Repeat
Format: toxicity, organism-based, Sprague-Dawley
Set-up: regimen Daily Repeat, gender Male, age 6-8 weeks
Settings: in vivo, iv; for ABSOLUTE BASOPHIL / ABSOLUTE EOSINOPHIL / ABSOLUTE LYMPHOCYTE / ABSOLUTE MONOCYTE / ABSOLUTE SEGMENTED NEUTROPHIL / BASOPHIL / EOSINOPHIL / ERYTHROCYTE COUNT / HEMATOCRIT / HEMOGLOBIN / LEUKOCYTE COUNT / LYMPHOCYTE / MEAN CORPUSCULAR HEMOGLOBIN / MEAN CORPUSCULAR HEMOGLOBIN CONCENTRATION / MEAN CORPUSCULAR VOLUME / MONOCYTE / NEUTROPHIL / NUCLEATED RED BLOOD CELLS / PLATELET COUNT: tissue Blood; for ALANINE AMINOTRANSFERASE / ALBUMIN / ALKALINE PHOSPHATASE / ASPARTATE AMINOTRANSFERASE / BLOOD UREA NITROGEN / CARBON DIOXIDE / CHLORIDE / CHOLESTEROL / CREATINE PHOSPHOKINASE / CREATININE / GLUCOSE / LACTATE DEHYDROGENASE / LIPASE / PHOSPHORUS / POTASSIUM / SODIUM / TOTAL BILIRUBIN / TOTAL PROTEIN / URIC ACID: tissue Plasma
[1] = 0 mg/kg, 72 h, dose level Control, time 3 day, vehicle 100 % SALINE
[2] = 0 mg/kg, 120 h, dose level Control, time 5 day, vehicle 10 % DMSO/SALINE
[3] = 0 mg/kg, 120 h, dose level Control, time 5 day, vehicle 100 % SALINE
[4] = 0 mg/kg, […], dose level Control, time 14 day, vehicle 100 % SALINE
[5] = 4 mg/kg, 120 h, dose level High, time 5 day, vehicle 10 % DMSO/SALINE

CC(=O)[C@]1(O)Cc2c(O)c3c(c(O)c2[C@@H](O[C@H]2C[C@H](N)[C@H](O)[C@H](C)O2)C1)C(=O)c1ccccc1C3=O [IDARUBICIN]
ABSOLUTE BASOPHIL [1]: 0 CELLS/uL
ABSOLUTE EOSINOPHIL [1]: 247.67 CELLS/uL
ABSOLUTE LYMPHOCYTE [1]: 13190.83 CELLS/uL
ABSOLUTE MONOCYTE [1]: 307.67 CELLS/uL
ABSOLUTE SEGMENTED NEUTROPHIL [1]: 1220.5 CELLS/uL
BASOPHIL [1]: 0%
EOSINOPHIL [1]: 1.67%
ERYTHROCYTE COUNT [1]: 5.47 x10E6/uL
HEMATOCRIT [1]: 33.98%
HEMOGLOBIN [1]: 12.65 G/DL
LEUKOCYTE COUNT [1]: 14.97 x10E3/uL
LYMPHOCYTE [1]: 88.17%
MEAN CORPUSCULAR HEMOGLOBIN [1]: 23.17 pg
MEAN CORPUSCULAR HEMOGLOBIN CONCENTRATION [1]: 37.23 G/DL
MEAN CORPUSCULAR VOLUME [1]: 62.25 fL
MONOCYTE [1]: 2%
NEUTROPHIL [1]: 8.17%
NUCLEATED RED BLOOD CELLS [1]: 0 /100WBC
PLATELET COUNT [1]: 1307.17 x10E3/uL
ALANINE AMINOTRANSFERASE [1]: 39.67 u/L
ALBUMIN [1]: 4.08 G/DL
ALKALINE PHOSPHATASE [1]: 383.17 u/L
ASPARTATE AMINOTRANSFERASE [1]: 88.83 u/L
BLOOD UREA NITROGEN [1]: 18.5 mg/dL
CARBON DIOXIDE [1]: 27.5 mmol/L
CHLORIDE [1]: 103 MEQ/L
CHOLESTEROL [1]: 67.33 mg/dL
CREATINE PHOSPHOKINASE [1]: 414.67 u/L
CREATININE [1]: 0.19 mg/dL
GLUCOSE [1]: 149.33 mg/dL
LACTATE DEHYDROGENASE [1]: 536.83 u/L
LIPASE [1]: 8.83 u/L
PHOSPHORUS [1]: 11.13 mg/dL
POTASSIUM [1]: 6.23 MEQ/L
SODIUM [1]: 144.42 MEQ/L
TOTAL BILIRUBIN [1]: 0.18 mg/dL
TOTAL PROTEIN [1]: 5.57 G/DL
URIC ACID [1]: 1.23 mg/dL
BASOPHIL [2]: 0.28%
EOSINOPHIL [2]: 0.55%
ERYTHROCYTE COUNT [2]: 7.09 x10E6/uL
HEMATOCRIT [2]: 45.85%
HEMOGLOBIN [2]: 14.93 G/DL
LEUKOCYTE COUNT [2]: 7.4 x10E3/uL
LYMPHOCYTE [2]: 84.22%
MEAN CORPUSCULAR HEMOGLOBIN [2]: 21.05 pg
MEAN CORPUSCULAR HEMOGLOBIN CONCENTRATION [2]: 32.5 G/DL
MEAN CORPUSCULAR VOLUME [2]: 64.72 fL
MONOCYTE [2]: 1.4%
NEUTROPHIL [2]: 12.45%
PLATELET COUNT [2]: 1476.75 x10E3/uL
ABSOLUTE SEGMENTED NEUTROPHIL [3]: 1104.67 CELLS/uL
BASOPHIL [3]: 1.05% and 0%
EOSINOPHIL [3]: 0.23% and 1%
ERYTHROCYTE COUNT [3]: 6.68 x10E6/uL and 5.73 x10E6/uL
HEMATOCRIT [3]: 42.27% and 36.85%
HEMOGLOBIN [3]: 13 G/DL and 13.67 G/DL
LEUKOCYTE COUNT [3]: 19.36 x10E3/uL and 15.13 x10E3/uL
LYMPHOCYTE [3]: 62.82% and 89.5%
MEAN CORPUSCULAR HEMOGLOBIN [3]: 19.43 pg and 23.87 pg
MEAN CORPUSCULAR HEMOGLOBIN CONCENTRATION [3]: 30.68 G/DL and 37.1 G/DL
MEAN CORPUSCULAR VOLUME [3]: 63.25 fL and 64.33 fL
MONOCYTE [3]: 3.45% and 2.33%
NUCLEATED RED BLOOD CELLS [3]: 0.17 /100WBC
PLATELET COUNT [3]: 1275.5 x10E3/uL and 1266 x10E3/uL
ALANINE AMINOTRANSFERASE [2]: 21.25 u/L
ALBUMIN [2]: 4.28 G/DL
ALKALINE PHOSPHATASE [2]: 337.5 u/L
ASPARTATE AMINOTRANSFERASE [2]: 87.25 u/L
BLOOD UREA NITROGEN [2]: 13 mg/dL
CARBON DIOXIDE [2]: 27 mmol/L
CHLORIDE [2]: 106.75 MEQ/L
CHOLESTEROL [2]: 54.5 mg/dL
CREATINE PHOSPHOKINASE [2]: 424.75 u/L
CREATININE [2]: 0.47 mg/dL
GLUCOSE [2]: 135.75 mg/dL
LACTATE DEHYDROGENASE [2]: 200.25 u/L
LIPASE [2]: 9 u/L
PHOSPHORUS [2]: 11.62 mg/dL
POTASSIUM [2]: 5.58 MEQ/L
SODIUM [2]: 150.5 MEQ/L
TOTAL BILIRUBIN [2]: 0.25 mg/dL
TOTAL PROTEIN [2]: 6.33 G/DL
URIC ACID [2]: 1.75 mg/dL
ALANINE AMINOTRANSFERASE [3]: 62.75 u/L and 49.17 u/L
ALBUMIN [3]: 3.2 G/DL and 4.22 G/DL
ALKALINE PHOSPHATASE [3]: 320.75 u/L and 352.67 u/L
ASPARTATE AMINOTRANSFERASE [3]: 112.25 u/L and 95.17 u/L
BLOOD UREA NITROGEN [3]: 14.25 mg/dL and 18.83 mg/dL
CARBON DIOXIDE [3]: 36.25 mmol/L and 25.67 mmol/L
CHLORIDE [3]: 106.25 MEQ/L and 102.67 MEQ/L
CHOLESTEROL [3]: 63.5 mg/dL and 66.83 mg/dL
CREATINE PHOSPHOKINASE [3]: 757.75 u/L and 550.33 u/L
CREATININE [3]: 0.23 mg/dL
GLUCOSE [3]: 175.5 mg/dL and 186.17 mg/dL
LACTATE DEHYDROGENASE [3]: 205.25 u/L and 471.33 u/L
PHOSPHORUS [3]: 11.35 mg/dL and 12.3 mg/dL
POTASSIUM [3]: 6.7 MEQ/L and 6.35 MEQ/L
SODIUM [3]: 151.25 MEQ/L and 143.57 MEQ/L
TOTAL BILIRUBIN [3]: 0.2 mg/dL and 0.18 mg/dL
TOTAL PROTEIN [3]: 5.78 G/DL and 6.05 G/DL
URIC ACID [3]: 1.23 mg/dL and 2 mg/dL
ABSOLUTE BASOPHIL [4]: 400 cells/µL
ABSOLUTE EOSINOPHIL [4]: 46.7 cells/µL
ABSOLUTE LYMPHOCYTE [4]: 18600 cells/µL
ABSOLUTE MONOCYTE [4]: 760 cells/µL
BASOPHIL [4]: 1.73%
EOSINOPHIL [4]: 0.2%
ERYTHROCYTE COUNT [4]: 7.04 x10E6/uL
HEMATOCRIT [4]: 41.83%
HEMOGLOBIN [4]: 13.07 G/DL
LEUKOCYTE COUNT [4]: 24.9 x10E3/uL
LYMPHOCYTE [4]: 74.43%
MEAN CORPUSCULAR HEMOGLOBIN [4]: 18.63 pg
MEAN CORPUSCULAR HEMOGLOBIN CONCENTRATION [4]: 31.33 G/DL
MEAN CORPUSCULAR VOLUME [4]: 59.43 fL
MONOCYTE [4]: 3.13%
NEUTROPHIL [4]: 18.97%
PLATELET COUNT [4]: 1314.33 x10E3/uL
ALANINE AMINOTRANSFERASE [4]: 42.67 u/L
ALBUMIN [4]: 3.6 G/DL
ALKALINE PHOSPHATASE [4]: 298 u/L
ASPARTATE AMINOTRANSFERASE [4]: 67.33 u/L
BLOOD UREA NITROGEN [4]: 14.33 mg/dL
CARBON DIOXIDE [4]: 41.67 mmol/L
CHLORIDE [4]: 102.67 MEQ/L
CHOLESTEROL [4]: 62.67 mg/dL
CREATINE PHOSPHOKINASE [4]: 338.67 u/L
CREATININE [4]: 0.7 mg/dL
GLUCOSE [4]: 147.33 mg/dL
LACTATE DEHYDROGENASE [4]: 94.33 u/L
LIPASE [4]: 80 u/L
PHOSPHORUS [4]: 9.6 mg/dL
POTASSIUM [4]: 6.67 MEQ/L
SODIUM [4]: 148 MEQ/L
TOTAL BILIRUBIN [4]: 0.2 mg/dL
TOTAL PROTEIN [4]: 6.67 G/DL
URIC ACID [4]: 1.03 mg/dL
BASOPHIL [5]: 0.8%
EOSINOPHIL [5]: 2.95%
ERYTHROCYTE COUNT [5]: 7.46 x10E6/uL
HEMATOCRIT [5]: 47.3%
HEMOGLOBIN [5]: 15.42 G/DL
LEUKOCYTE COUNT [5]: 0.0975 x10E3/uL
LYMPHOCYTE [5]: 69%
MEAN CORPUSCULAR HEMOGLOBIN [5]: 20.73 pg
MEAN CORPUSCULAR HEMOGLOBIN CONCENTRATION [5]: 32.67 G/DL
MEAN CORPUSCULAR VOLUME [5]: 63.45 fL
MONOCYTE [5]: 1.3%
NEUTROPHIL [5]: 23.9%
PLATELET COUNT [5]: 879.25 x10E3/uL
ALANINE AMINOTRANSFERASE [5]: 11.75 u/L
ALBUMIN [5]: 2.88 G/DL
ALKALINE PHOSPHATASE [5]: 156 u/L
ASPARTATE AMINOTRANSFERASE [5]: 63.5 u/L
BLOOD UREA NITROGEN [5]: 18 mg/dL
CARBON DIOXIDE [5]: 25 mmol/L
CHLORIDE [5]: 112 MEQ/L
CHOLESTEROL [5]: 152.75 mg/dL
CREATINE PHOSPHOKINASE [5]: 475.25 u/L
CREATININE [5]: 0.5 mg/dL
GLUCOSE [5]: 116.5 mg/dL
LACTATE DEHYDROGENASE [5]: 183.5 u/L
LIPASE [5]: 13 u/L
PHOSPHORUS [5]: 9.47 mg/dL
POTASSIUM [5]: 5.03 MEQ/L
SODIUM [5]: 151 MEQ/L
TOTAL BILIRUBIN [5]: 0.2 mg/dL
TOTAL PROTEIN [5]: 4.57 G/DL
URIC ACID [5]: 1.45 mg/dL

Reference: ChEMBL document CHEMBL3885881, “DrugMatrix”
